Patent US6504030B1, “Polymorphic form of clopidogrel hydrogen sulphate” (Sanofi-Synthelabo, priority 1998, dated 2003)
Where a name gives a salt, the structure may show the parent alone.

How the values were obtained:
[1] = compared with Form 1
[2] = system: platelet aggregation; details: enantiomers compared, per EP 281459; cited from earlier work
[3] = compared with dextrorotatory isomer, per EP 281459; cited from earlier work

Structure (SMILES)	compactness of bulk solid [1]	electrostatic behaviour of bulk solid [1]	platelet aggregation inhibiting activity [2]	tolerance [3]
COC(=O)[C@H](c1ccccc1Cl)N1CCc2sccc2C1.O=S(=O)(O)O [Form 2, hydrogen sulfate of methyl (+)-(S)-α-(2-chlorophenyl)-4,5,6,7-tetrahydrothieno[3,2-c]pyridine-5-acetate]	more compact	much less electrostatic than Form 1	–	–
COC(=O)[C@H](c1ccccc1Cl)N1CCc2sccc2C1 [clopidogrel hydrogen sulfate, hydrogen sulfate of methyl (+)-(S)-α-(2-chlorophenyl)-4,5,6,7-tetrahydrothieno[3,2-c]pyridine-5-acetate]	–	–	excellent platelet aggregation inhibiting activity	–
COC(=O)C(c1ccccc1Cl)N1CCc2sccc2C1 (single isomer, unassigned) [levorotatory isomer]	–	–	less active	less well tolerated
